Literature values, collected in the CATMoS acute toxicity set (Mansouri et al. 2021).
*1 amine or outer side, *2 acyl side, *3 side chain or, on linkers, in order; H or OH if unused. Where a SMILES comes first, the peptide text is derived from it. Bridges are numbered along the chain shown (N, C = ends). Roman numbers before positions name the chains, in order. [ ]: non-standard residue; d: D form. Actinocin(9to1) = Cc1c2oc3c(C)ccc(C(=O)[*:1])c3nc-2c(C(=O)[*:2])c(N)c1=O; NMeV = CN[C@H](C(=O)O)C(C)C; Sar = CNCC(=O)O

Assay: rat acute oral toxicity
Settings: in vivo
In the case of `CC(C)(C(N)=O)c1ccccc1`, the LD50 is listed as 1650 mg/kg.
For `O=C(O)c1ccc([N+](=O)[O-])cc1`, the LD50 is given as 1960 mg/kg.
In the case of `Cc1ccc(C(C)C=O)cc1` (stereo not given), the LD50 is listed as 3500 mg/kg.
In the case of `CC(C)(C)c1ccc(OP2OCC3(CO2)COP(Oc2ccc(C(C)(C)C)cc2C(C)(C)C)OC3)c(C(C)(C)C)c1` (stereo not given), the LD50 is listed as 5580 mg/kg.
In the case of `CC(C)CCOC(=O)c1ccccc1`, the LD50 is listed as 6330 mg/kg.
In the case of `CC(C(=O)O)c1ccc2oc(-c3ccc(F)cc3)nc2c1` (stereo not given), the LD50 is given as 521 mg/kg.
In the case of `COc1ccccc1NC(=O)C(N=Nc1ccc(-c2ccc(N=NC(C(C)=O)C(=O)Nc3ccccc3OC)c(Cl)c2)cc1Cl)C(C)=O` (stereo not given), the LD50 is listed as 2230 mg/kg.
In the case of `CCOC(=O)C1=C(C)NC(C)=C(C(=O)OC)C1c1cccc([N+](=O)[O-])c1` (stereo not given), the LD50 is listed as 15400 mg/kg.
For `c1cc(OCC2CO2)cc(OCC2CO2)c1` (stereo not given), the LD50 is given as 2570 mg/kg.
In the case of `NC(N)=NC(N)=NCc1ccccc1`, the LD50 is given as 481 mg/kg.
For `CC(Cl)C(=O)O` (stereo not given), the LD50 is given as 800 mg/kg.
For `S=C(NNc1ccccc1)NNc1ccccc1`, the LD50 is listed as 1500 mg/kg.
For `NC(=O)c1cc(C(=O)CBr)ccc1O`, the LD50 is given as 800 mg/kg.
For `Cc1onc2c(=O)n(-c3ccccc3)nc(-c3ccccc3)c12`, the LD50 is given as 1000 mg/kg.
In the case of `Nc1ncc2[nH]cnc2n1`, the LD50 is listed as 723 mg/kg.
In the case of `Clc1nc(Cl)c(Cl)c(Cl)c1Cl`, the LD50 is given as 435 mg/kg.
For `CCCCC(C#N)(Cn1ccnc1)c1ccccc1` (stereo not given), the LD50 is listed as 1590 mg/kg.
In the case of `COC(C)OC`, the LD50 is listed as 6500 mg/kg.
For `O=[N+]([O-])c1ccc2c(N=Nc3ccc4ccccc4c3O)c(O)cc(S(=O)(=O)O)c2c1`, the LD50 is listed as 17600 mg/kg.
For `CC1CC(C)(C)CC(OOC(C)(C)C)(OOC(C)(C)C)C1` (stereo not given), the LD50 is listed as 12900 mg/kg.
In the case of `O=C1CC2(CCCC2)CC(=O)N1CCCCN1CCN(c2nsc3ccccc23)CC1`, the LD50 is listed as 1850 mg/kg.
In the case of `CCCCC(O)(Cn1cncn1)c1ccc(Cl)cc1Cl` (stereo not given), the LD50 is given as 2190 mg/kg.
In the case of `CCCCOC(=O)COc1ccc(Cl)cc1C`, the LD50 is given as 914 mg/kg.
In the case of `COC(=O)CCBr`, the LD50 is given as 1600 mg/kg.
For `CC(=O)C(c1ccccc1)N1CCN(CCOc2ccccc2)CC1` (stereo not given), the LD50 is listed as 800 mg/kg.
For `C1CN(SSSSN2CCOCC2)CCO1`, the LD50 is listed as 4800 mg/kg.
For `O=[N+]([O-])c1ccc(/C=N/NC(=S)N2CCCC2)o1`, the LD50 is listed as 750 mg/kg.
For `ClC(Cl)(Cl)Sn1cccn1`, the LD50 is listed as 350 mg/kg.
For `Clc1nc(Cl)nc(Nc2ccccc2Cl)n1`, the LD50 is given as 2700 mg/kg.
For `CC(C)NC(=O)OC1CCN(CCCC(=O)c2ccc(F)cc2)CC1`, the LD50 is given as 310 mg/kg.
In the case of `COc1cc(C(O)C(C)NC(C)COc2ccccc2)ccc1O` (stereo not given), the LD50 is listed as 1280 mg/kg.
In the case of `O=C(O)CNCC(=O)O`, the LD50 is given as 8070 mg/kg.
In the case of `O=S(=O)(O)c1cccc2c(S(=O)(=O)O)cccc12`, the LD50 is listed as 30000 mg/kg.
In the case of `C=CCON/C(CCC)=C1\C(=O)CC(C)(C)C(C(=O)OC)=C1O`, the LD50 is given as 2260 mg/kg.
For `C[C@H]1CCCCN1N=O`, the LD50 is listed as 600 mg/kg.
In the case of `CCCCNC1(P(=O)(OCCCC)OCCCC)CCCCC1`, the LD50 is given as 3000 mg/kg.
For `Oc1ccc(C2=CCCCC2)cc1`, the LD50 is given as 2830 mg/kg.
For `COC(=O)c1cc([N+](=O)[O-])ccc1Cl`, the LD50 is listed as 5360 mg/kg.
In the case of `O=C(NNCS(=O)(=O)O)c1ccncc1`, the LD50 is given as 14400 mg/kg.
For `C=CCC1(C(C)SCCCC)C(=O)N=C(O)NC1=O` (stereo not given), the LD50 is given as 639 mg/kg.
In the case of `CC(C)NCC(O)c1cc(O)cc(O)c1` (stereo not given), the LD50 is listed as 3370 mg/kg.
In the case of `CC[C@H]1CN2CCc3cc(OC)c(OC)cc3[C@@H]2C[C@@H]1C[C@H]1NCCc2cc(OC)c(OC)cc21`, the LD50 is listed as 0.012 mg/kg.
For `CCOC(=S)C=Cc1ccc(Cl)cc1`, the LD50 is given as 950 mg/kg.
For `Clc1nc(C(Cl)(Cl)Cl)c(Cl)c(Cl)c1Cl`, the LD50 is given as 1840 mg/kg.
For `CC1(CCO)CCOCO1` (stereo not given), the LD50 is given as 8800 mg/kg.
In the case of `CC(Cl)=CC(=O)Nc1ccc(O)cc1`, the LD50 is listed as 1580 mg/kg.
In the case of `COc1cc(C=CC(=O)N2CCN(CC(=O)N3CCCC3)CC2)cc(OC)c1OC`, the LD50 is given as 1310 mg/kg.
In the case of `O=S(=O)(O)c1ccc2cc(Nc3cccc4c(O)c(S(=O)(=O)O)ccc34)ccc2c1O`, the LD50 is listed as 11000 mg/kg.
In the case of `CN1CCCC(CN2c3ccccc3Sc3ccccc32)C1` (stereo not given), the LD50 is listed as 1000 mg/kg.
In the case of `CCCCCCCc1ccc(C)cc1O`, the LD50 is given as 3320 mg/kg.
For `O=C(NCCO[N+](=O)[O-])c1cccnc1`, the LD50 is given as 1220 mg/kg.
In the case of `Cc1cc(Cl)ccc1NC=O`, the LD50 is listed as 564 mg/kg.
In the case of `CCCCCC/C=C/C1CC(=O)OC1=O` (stereo not given), the LD50 is listed as 1100 mg/kg.
For `CC(C)(C#N)/N=N/C(C)(C)C#N`, the LD50 is given as 100 mg/kg.
For `Cc1c2oc3c(C)ccc(C(=O)N[C@@H]4C(=O)N[C@H](C(C)C)C(=O)N5CCC[C@H]5C(=O)N(C)CC(=O)N(C)[C@@H](C(C)C)C(=O)O[C@@H]4C)c3nc-2c(C(=O)N[C@@H]2C(=O)N[C@H](C(C)C)C(=O)N3CCC[C@H]3C(=O)N(C)CC(=O)N(C)[C@@H](C(C)C)C(=O)O[C@@H]2C)c(N)c1=O` (I: T[dV]P[Sar][NMeV] / II: T[dV]P[Sar][NMeV]; ester I:1-I:C, II:1-II:C; linker I:N-II:N via Actinocin(9to1)), the LD50 is given as 7.2 mg/kg.
In the case of `CC(C)(C)c1ccc(CCC=O)cc1`, the LD50 is given as 2700 mg/kg.
In the case of `CCOC(=O)C(Br)C#N` (stereo not given), the LD50 is listed as 420 mg/kg.
For `CCOP(=S)(OCC)SCCl`, the LD50 is given as 7 mg/kg.
For `CN1C(=O)CN2CCc3ccccc3C2c2cc(Cl)ccc21` (stereo not given), the LD50 is given as 1730 mg/kg.
In the case of `CCCCOC(=O)CCCOc1ccc(Cl)cc1Cl`, the LD50 is listed as 300 mg/kg.
In the case of `CC(C)c1cc([N+](=O)[O-])cc([N+](=O)[O-])c1O`, the LD50 is listed as 63 mg/kg.
For `O=C(O)c1cc2ccccc2oc1=O`, the LD50 is given as 200 mg/kg.
In the case of `C[N+](C)(C)CCI`, the LD50 is listed as 700 mg/kg.
In the case of `Cc1cc(S(=O)(=O)O)c2c(C)ccc(C(C)C)cc1-2`, the LD50 is listed as 6380 mg/kg.
In the case of `CC(=O)Nc1ccccc1`, the LD50 is listed as 800 mg/kg.
In the case of `CC(C)NCC(O)c1ccc(NS(C)(=O)=O)cc1` (stereo not given), the LD50 is given as 3450 mg/kg.
In the case of `Cc1cc(C(=O)c2ccccc2)ccc1N=Cc1cccc(OCCC(C)C)c1`, the LD50 is given as 2100 mg/kg.
In the case of `COc1ccc2cc(C(C)C(=O)OCC(O)CO)ccc2c1` (stereo not given), the LD50 is given as 1630 mg/kg.
In the case of `CN(CCO)c1ccc(N=Nc2c(Cl)cc([N+](=O)[O-])cc2Cl)cc1`, the LD50 is listed as 2820 mg/kg.
In the case of `OCC1CCCCO1` (stereo not given), the LD50 is listed as 3730 mg/kg.
